Results on 1 molecule are retold here after patent US7531320B2, “Modulation of β-catenin/TCF-activated transcription” (priority 2003, dated 2009).

The structures appear in SMILES notation.

For experiment [1], the target named is T1, p300/β-catenin complex (Homo sapiens, UniProt Q09472).
T1 construct: endogenous in cells; host or cells: SW480
As to the kind of experiment: Co-immunoprecipitation of β-catenin with p300 in SW480 cells. It counts as cell-based. To be noted: SW480 cells, 5 or 10 μM, 24 hours. The protocol:
(§1) FIG. 3. COMPOUND 1 disrupts the β-catenin/CBP complex but not the p300/β-catenin complex. • A. Full-length Xenopus laevis β-catenin (1.1, 2.2, and 3.3 μg) or murine CBP (0.14, 0.28, 0.55, 1.1, and 2.2 μg) plasmids were cotransfected in SW480 cells along with the β-catenin/TCF (1.1 μg) reporter gene construct. Empty pcDNA3 vector was used to equalize the amount of DNA used in each reaction. Dual luciferase assays were performed 24 hours post COMPOUND 1 treatment. All experiments were performed in duplicate and values plotted as means +/−standard deviation. • B. COMPOUND 1 competes with β-catenin for CBP. SW480 cells were treated with 5 or 10 μM of COMPOUND 1 or control (0.5% DMSO). 24 hours post treatment, lysates were incubated with beads coated with either control the antibody, or anti-CBP, or anti-p300 antibodies. Co-immunoprecipitated proteins were subjected to gel electrophoresis and immunoblotting using anti-β-catenin antibodies. The arrows point to the immunoprecipitated β-catenin (doublets). • C. CBP (1-111) is the minimal region of interaction with β-catenin. SW480 cells transfected with a CBP deletion series were subjected to immunoprecipitation using anti-β-catenin antibodies coated on Protein A-agarose beads. The immune complexes were washed and subjected to gel electrophoresis followed by immunoblotting using anti-His antibodies. […]
T1 sequence (Q09472 2-2414, one chain of several): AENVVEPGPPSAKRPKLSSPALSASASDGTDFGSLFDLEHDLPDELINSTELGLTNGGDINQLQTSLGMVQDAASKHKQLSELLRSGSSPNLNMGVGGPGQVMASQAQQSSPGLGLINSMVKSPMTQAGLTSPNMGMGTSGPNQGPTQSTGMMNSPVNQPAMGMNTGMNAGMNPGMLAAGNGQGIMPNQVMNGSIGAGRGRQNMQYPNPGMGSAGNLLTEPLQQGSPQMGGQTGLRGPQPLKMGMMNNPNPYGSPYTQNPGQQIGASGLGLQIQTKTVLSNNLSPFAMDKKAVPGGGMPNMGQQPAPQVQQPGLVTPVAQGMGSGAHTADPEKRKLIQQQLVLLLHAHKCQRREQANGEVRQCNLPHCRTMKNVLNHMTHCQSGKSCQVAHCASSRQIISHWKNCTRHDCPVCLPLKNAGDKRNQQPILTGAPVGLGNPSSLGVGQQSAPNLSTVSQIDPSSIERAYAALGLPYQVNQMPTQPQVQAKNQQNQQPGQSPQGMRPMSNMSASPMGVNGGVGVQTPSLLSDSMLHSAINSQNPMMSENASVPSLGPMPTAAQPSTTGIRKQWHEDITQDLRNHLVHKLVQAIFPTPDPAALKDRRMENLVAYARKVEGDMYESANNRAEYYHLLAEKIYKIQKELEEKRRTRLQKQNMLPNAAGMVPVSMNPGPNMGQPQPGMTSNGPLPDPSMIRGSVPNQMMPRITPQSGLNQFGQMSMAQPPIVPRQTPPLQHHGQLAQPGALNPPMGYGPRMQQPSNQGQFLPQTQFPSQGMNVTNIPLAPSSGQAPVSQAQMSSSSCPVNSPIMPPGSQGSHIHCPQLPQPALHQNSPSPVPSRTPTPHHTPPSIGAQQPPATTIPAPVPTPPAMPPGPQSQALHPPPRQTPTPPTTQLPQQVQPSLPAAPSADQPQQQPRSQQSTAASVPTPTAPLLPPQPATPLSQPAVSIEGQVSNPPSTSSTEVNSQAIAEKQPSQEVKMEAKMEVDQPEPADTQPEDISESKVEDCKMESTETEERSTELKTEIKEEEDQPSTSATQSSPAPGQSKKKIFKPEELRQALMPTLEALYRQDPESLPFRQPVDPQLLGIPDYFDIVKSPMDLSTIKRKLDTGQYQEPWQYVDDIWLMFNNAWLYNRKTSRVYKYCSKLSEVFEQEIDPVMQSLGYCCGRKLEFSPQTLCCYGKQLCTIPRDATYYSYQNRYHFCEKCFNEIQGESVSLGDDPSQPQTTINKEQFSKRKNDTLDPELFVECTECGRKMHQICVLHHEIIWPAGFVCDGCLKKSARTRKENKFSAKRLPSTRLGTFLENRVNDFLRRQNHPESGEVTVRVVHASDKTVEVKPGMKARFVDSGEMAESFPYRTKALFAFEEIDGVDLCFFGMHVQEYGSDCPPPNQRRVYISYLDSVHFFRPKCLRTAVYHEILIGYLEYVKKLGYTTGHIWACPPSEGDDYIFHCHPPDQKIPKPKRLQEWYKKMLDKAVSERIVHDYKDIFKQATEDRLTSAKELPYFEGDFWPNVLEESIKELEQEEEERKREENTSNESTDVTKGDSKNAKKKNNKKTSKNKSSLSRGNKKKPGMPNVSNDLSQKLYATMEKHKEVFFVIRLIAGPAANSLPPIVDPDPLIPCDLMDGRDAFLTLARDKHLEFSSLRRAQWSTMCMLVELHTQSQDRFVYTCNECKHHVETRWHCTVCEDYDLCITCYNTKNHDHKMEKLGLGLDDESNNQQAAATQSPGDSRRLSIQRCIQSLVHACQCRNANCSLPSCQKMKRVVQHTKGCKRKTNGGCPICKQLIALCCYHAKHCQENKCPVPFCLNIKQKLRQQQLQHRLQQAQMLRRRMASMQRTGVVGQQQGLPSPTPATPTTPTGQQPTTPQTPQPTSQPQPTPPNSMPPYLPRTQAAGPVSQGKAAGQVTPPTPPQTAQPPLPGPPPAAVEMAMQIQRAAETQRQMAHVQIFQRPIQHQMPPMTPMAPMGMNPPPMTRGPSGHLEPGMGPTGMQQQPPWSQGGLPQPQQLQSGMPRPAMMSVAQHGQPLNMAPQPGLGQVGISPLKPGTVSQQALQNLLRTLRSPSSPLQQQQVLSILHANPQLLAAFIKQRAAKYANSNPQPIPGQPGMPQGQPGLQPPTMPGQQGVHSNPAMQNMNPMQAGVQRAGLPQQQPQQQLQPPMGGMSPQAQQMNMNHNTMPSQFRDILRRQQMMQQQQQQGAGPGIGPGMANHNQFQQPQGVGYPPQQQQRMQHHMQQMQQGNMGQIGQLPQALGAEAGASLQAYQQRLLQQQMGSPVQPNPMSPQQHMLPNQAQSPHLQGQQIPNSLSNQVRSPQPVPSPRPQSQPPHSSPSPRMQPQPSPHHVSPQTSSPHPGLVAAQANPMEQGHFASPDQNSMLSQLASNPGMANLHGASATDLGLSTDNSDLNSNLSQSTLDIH

In experiment [2] the target is T2, p300/β-catenin complex (Homo sapiens, UniProt Q09472).
T2 construct: endogenous in cells; host or cells: SW480
The experiment is described as above. To be noted: p300 (1-111), (1-211), (1-351), 50 μM COMPOUND 1. Type of experiment: cell-based. Here is the method: as §1
T2 sequence (Q09472 1-111, one chain of several): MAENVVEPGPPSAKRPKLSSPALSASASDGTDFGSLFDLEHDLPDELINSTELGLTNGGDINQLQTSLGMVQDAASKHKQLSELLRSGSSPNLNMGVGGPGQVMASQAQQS

In the case of `O=C1C(Cc2ccc(O)cc2)N2C(=O)CCN(C(=O)NCc3ccccc3)C2CN1Cc1cccc2ccccc12` (centres unmarked) [COMPOUND 1], the “Binding of β-catenin to p300 (immunoprecipitation)” value at p300/β-catenin complex [1] is “did not interfere”. On p300/β-catenin complex [2], the “p300 fragments binding to immunoprecipitated β-catenin in presence of excess COMPOUND 1” value is “had no effect”.
